Source: PubChem BioAssay AID248 (DTP/NCI, 2004)
Values joined by “and” are separate entries in the source; they are usually repeats but may differ in a detail not shown here. Identical values can stand only once. Inconclusive results and toxic doses are left out. Rule as the data show it: active = T/C of 150% or more; inactive = T/C below 125%.

Tested on: L1210 leukemia ip in BDF1 mice, survival T/C
Assay: NCI In Vivo Anticancer Drug Screen. Data for tumor model L1210 Leukemia (intraperitoneal) in B6D2F1 (BDF1) mice
Conditions: endpoint: mean survival time, higher = longer survival
How it was run: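 In this screen, tumor-bearing mice given compound are compared to those given vehicle, and their survival values are reported as a treated-to-control quotient.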

[1] = dose: 100.0 mg/kg/injection, schedule: Q04DX003 (ip), vehicle: Klucel (hydroxypropylcellulose) (HPC)
[2] = dose: 200.0 mg/kg/injection, schedule: Q04DX003 (ip), vehicle: Klucel (hydroxypropylcellulose) (HPC)
[3] = dose: 400.0 mg/kg/injection, schedule: Q04DX003 (ip), vehicle: Klucel (hydroxypropylcellulose) (HPC)
[4] = dose: 100.0 mg/kg/injection, schedule: Q04DX002 (ip), vehicle: saline with Tween-80
[5] = dose: 200.0 mg/kg/injection, schedule: Q04DX002 (ip), vehicle: saline with Tween-80
[6] = dose: 400.0 mg/kg/injection, schedule: Q04DX002 (ip), vehicle: saline with Tween-80
[7] = dose: 100.0 mg/kg/injection, schedule: Q04DX002 (ip), vehicle: Klucel (hydroxypropylcellulose) (HPC)
[8] = dose: 100.0 mg/kg/injection, schedule: Q04DX003 (ip), vehicle: saline
[9] = dose: 200.0 mg/kg/injection, schedule: Q04DX003 (ip), vehicle: saline
[10] = dose: 400.0 mg/kg/injection, schedule: Q04DX003 (ip), vehicle: saline
[11] = dose: 100.0 mg/kg/injection, schedule: Q04DX002 (ip), vehicle: saline
[12] = dose: 200.0 mg/kg/injection, schedule: Q04DX002 (ip), vehicle: saline
[13] = dose: 400.0 mg/kg/injection, schedule: Q04DX002 (ip), vehicle: saline
[14] = dose: 100.0 mg/kg/injection, schedule: Q01DX009 (ip), vehicle: Klucel (hydroxypropylcellulose) (HPC)
[15] = dose: 200.0 mg/kg/injection, schedule: Q01DX009 (ip), vehicle: Klucel (hydroxypropylcellulose) (HPC)
[16] = dose: 100.0 mg/kg/injection, schedule: Q01DX009 (ip), vehicle: saline with Tween-80
[17] = dose: 200.0 mg/kg/injection, schedule: Q01DX009 (ip), vehicle: saline with Tween-80
[18] = dose: 400.0 mg/kg/injection, schedule: Q01DX009 (ip), vehicle: saline with Tween-80
[19] = dose: 100.0 mg/kg/injection, schedule: Q01DX001 (ip), vehicle: saline
[20] = dose: 200.0 mg/kg/injection, schedule: Q01DX001 (ip), vehicle: saline
[21] = dose: 400.0 mg/kg/injection, schedule: Q01DX001 (ip), vehicle: saline
[22] = dose: 100.0 mg/kg/injection, schedule: Q01DX009 (ip), vehicle: saline
[23] = dose: 200.0 mg/kg/injection, schedule: Q01DX009 (ip), vehicle: saline
[24] = dose: 100.0 mg/kg/injection, schedule: Q04DX003 (ip), vehicle: saline with Tween-80
[25] = dose: 200.0 mg/kg/injection, schedule: Q04DX003 (ip), vehicle: saline with Tween-80
[26] = dose: 400.0 mg/kg/injection, schedule: Q04DX003 (ip), vehicle: saline with Tween-80
[27] = dose: 150.0 mg/kg/injection, schedule: Q01DX001 (ip), vehicle: saline

Measured: T/C

COC1C(O)C(C)OC(O[C@@H]2C[C@H]3CC[C@@H]4[C@H](CC[C@]5(C)[C@@H](C6=CC(=O)OC6)CC[C@]45O)[C@@]3(C)[C@H](O)C2)C1O (some centres undefined)
inactive: dose: 0.63 mg/kg/injection, schedule: Q01DX001 (ip), vehicle: saline 103 % of control | dose: 1.25 mg/kg/injection, schedule: Q01DX001 (ip), vehicle: saline 101 % of control | dose: 2.5 mg/kg/injection, schedule: Q01DX001 (ip), vehicle: saline 97 % of control | dose: 5.0 mg/kg/injection, schedule: Q01DX001 (ip), vehicle: saline 94 % of control | dose: 10.0 mg/kg/injection, schedule: Q01DX001 (ip), vehicle: saline 103 % of control | dose: 20.0 mg/kg/injection, schedule: Q01DX001 (ip), vehicle: saline 106 % of control | dose: 40.0 mg/kg/injection, schedule: Q01DX001 (ip), vehicle: saline 111 % of control | dose: 80.0 mg/kg/injection, schedule: Q01DX001 (ip), vehicle: saline 101 % of control

CCCCCCCc1ccc2cccc3c2c1C(=O)c1ccccc1-3
inactive: [1] 92 % of control | [2] 92 % of control | [3] 94 % of control

N#Cc1c(/N=C/c2ccccc2Cl)sc2c1CCC2
inactive: [4] 91 % of control | [5] 105 % of control | [6] 91 % of control

CCCN(CCC)CCNCC(Cc1ccccc1)c1ccccc1 (centres undefined)
inactive: dose: 50.0 mg/kg/injection, schedule: Q04DX002 (ip), vehicle: Klucel (hydroxypropylcellulose) (HPC) 99 % of control | [7] 99 % of control

O=S(=O)(O)C(I)(I)S(=O)(=O)O
inactive: [8] 99 % of control | [9] 100 % of control | [10] 95 % of control

Cc1ccc(S(=O)(=O)OC23CCC(C)(CC2)C(=O)C3)cc1
inactive: [11] 91 % of control | [12] 102 % of control | [13] 91 % of control

Cc1cc(=O)oc2c(OS(C)(=O)=O)c(OS(C)(=O)=O)ccc12
inactive: dose: 6.25 mg/kg/injection, schedule: Q01DX009 (ip), vehicle: Klucel (hydroxypropylcellulose) (HPC) 100 % of control | dose: 12.5 mg/kg/injection, schedule: Q01DX009 (ip), vehicle: Klucel (hydroxypropylcellulose) (HPC) 100 % of control | dose: 25.0 mg/kg/injection, schedule: Q01DX009 (ip), vehicle: Klucel (hydroxypropylcellulose) (HPC) 96 % of control and 100 % of control | dose: 50.0 mg/kg/injection, schedule: Q01DX009 (ip), vehicle: Klucel (hydroxypropylcellulose) (HPC) 94 % of control and 88 % of control | [14] 97 % of control | [15] 105 % of control

COc1cccc(OC)c1C1(O)c2c(OC)cccc2Oc2cccc(OC)c21
inactive: [16] 93 % of control | [17] 90 % of control | [18] 90 % of control

O=C(Nc1ccccc1F)Nc1cc([N+](=O)[O-])ccc1Cl
inactive: [14] 87 % of control | [15] 94 % of control | dose: 400.0 mg/kg/injection, schedule: Q01DX009 (ip), vehicle: Klucel (hydroxypropylcellulose) (HPC) 87 % of control

Cc1cc(C(=O)O)c(CN)c(=O)n1C
inactive: dose: 100.0 mg/kg/injection, schedule: Q04DX003 (ip), vehicle: water 102 % of control | dose: 200.0 mg/kg/injection, schedule: Q04DX003 (ip), vehicle: water 103 % of control | dose: 400.0 mg/kg/injection, schedule: Q04DX003 (ip), vehicle: water 102 % of control

CN(C)c1ccc(/C=C/C=C/C(=O)c2ccccc2)cc1
inactive: [1] 88 % of control | [2] 93 % of control | [3] 93 % of control

CCCC1C(=O)N2C(N(C)C)=Nc3ccc(C)cc3N2C1=O (centres undefined)
inactive: dose: 50.0 mg/kg/injection, schedule: Q01DX009 (ip), vehicle: carboxymethylcellulose (CMC) 101 % of control | [19] 110 % of control | dose: 100.0 mg/kg/injection, schedule: Q01DX009 (ip), vehicle: carboxymethylcellulose (CMC) 101 % of control | [20] 98 % of control | dose: 200.0 mg/kg/injection, schedule: Q01DX009 (ip), vehicle: carboxymethylcellulose (CMC) 101 % of control | [21] 93 % of control | dose: 400.0 mg/kg/injection, schedule: Q01DX009 (ip), vehicle: carboxymethylcellulose (CMC) 92 % of control

O=C(Cn1ccc(O)cc1=O)N1CCC2(CC1)SSC1(CCN(C(=O)Cn3ccc(O)cc3=O)CC1)S2
inactive: [22] 86 % of control | [8] 102 % of control | [23] 93 % of control | [9] 94 % of control | dose: 400.0 mg/kg/injection, schedule: Q01DX009 (ip), vehicle: saline 94 % of control | [10] 88 % of control

COC(=O)c1ccccc1Cn1ccnc1
inactive: [19] 108 % of control | [22] 102 % of control and 92 % of control | [11] 96 % of control and 103 % of control | [8] 115 % of control | [20] 101 % of control | [23] 94 % of control and 97 % of control | [12] 103 % of control and 105 % of control | [9] 101 % of control | [21] 97 % of control | [13] 100 % of control

OCCN=C1c2cc(Cl)ccc2-c2c(Cl)cc(Cl)cc21
inactive: [1] 103 % of control | [2] 97 % of control | [3] 87 % of control

CSc1ncc(CO)c(N2CC2)n1
inactive: dose: 100.0 mg/kg/injection, schedule: Q01DX Z (ip), vehicle: methylcellulose (MC) 87 % of control

O=C(O)c1ccccc1-c1ccccc1C(=O)O
inactive: [24] 111 % of control | [25] 97 % of control | [26] 94 % of control

CC(C)=CCC/C(C)=C/COC(=O)C(CC=C(C)C)CCN1CCN(CC=C(C)C)CC1 (centres undefined)
inactive: [16] 98 % of control | [7] 88 % of control | [17] 92 % of control | dose: 200.0 mg/kg/injection, schedule: Q04DX002 (ip), vehicle: Klucel (hydroxypropylcellulose) (HPC) 92 % of control | dose: 400.0 mg/kg/injection, schedule: Q04DX002 (ip), vehicle: Klucel (hydroxypropylcellulose) (HPC) 98 % of control

O=C(NC(=S)Nc1cccc2c(O)cccc12)c1ccc(Cl)cc1Cl
inactive: dose: 100.0 mg/kg/injection, schedule: Q01DX001 (ip), vehicle: saline with Tween-80 105 % of control | [16] 98 % of control and 90 % of control | [4] 95 % of control and 98 % of control | [24] 103 % of control | dose: 200.0 mg/kg/injection, schedule: Q01DX001 (ip), vehicle: saline with Tween-80 103 % of control | [17] 97 % of control and 117 % of control | [5] 101 % of control and 106 % of control | [25] 92 % of control | dose: 400.0 mg/kg/injection, schedule: Q01DX001 (ip), vehicle: saline with Tween-80 106 % of control | [18] 94 % of control and 98 % of control | [6] 95 % of control and 90 % of control | [26] 94 % of control

COc1ccc(C2CC(=O)OC(=O)C2)cc1
inactive: dose: 25.6 mg/kg/injection, schedule: Q04DX002 (ip), vehicle: saline with Tween-80 101 % of control | dose: 64.0 mg/kg/injection, schedule: Q04DX002 (ip), vehicle: saline with Tween-80 101 % of control | dose: 160.0 mg/kg/injection, schedule: Q04DX002 (ip), vehicle: saline with Tween-80 101 % of control | [25] 97 % of control | [6] 95 % of control | [26] 92 % of control

ClCCC(c1ccccc1)N1CCCCC1 (centres undefined)
inactive: dose: 44.0 mg/kg/injection, schedule: Q01DX001 (ip), vehicle: saline 97 % of control and 106 % of control | dose: 66.0 mg/kg/injection, schedule: Q01DX001 (ip), vehicle: saline 96 % of control and 97 % of control | [27] 97 % of control and 92 % of control | [20] 93 % of control

CC(C1=C(CCN(C)C)Cc2ccccc21)c1ccccn1 (centres undefined)
inactive: [19] 107 % of control

CC/C=C(\C)C1(CC)C(=O)N=C(N)NC1=O (centres undefined)
inactive: [27] 105 % of control
